SMILES	melting point
CC(O)c1c(Cl)nc2ccccn12 (stereo unspecified)	132 to 134 °C
CC(C)(C)n1ncc(Cl)c(Cl)c1=O	64 to 66 °C
Cc1cccc(C)c1OCC(=O)O	138 to 140 °C
Nc1ncc(-c2ccccc2)[nH]1	139 to 141 °C
N#Cc1cccc(NC(=O)c2ccccc2F)c1	132 to 134 °C
CC(Cl)C(=O)Nc1c(Cl)cccc1Cl (stereo unspecified)	144 to 146 °C
CC(C)(C)OC(=O)NC(Cc1ccccc1)C(O)C(F)(F)F (stereo unspecified)	149 to 151 °C
NC1CCN(CC(=O)Nc2ccccc2)CC1	75 to 77 °C
CC1=CC(=C2Nc3cc(F)ccc3N2C(C)C)C=CC1=N	136 to 138 °C
COc1ccc(-c2noc(CCl)n2)c(OC)c1	76 to 80 °C
COc1ccccc1Nc1ccc(N)cc1	73 to 75 °C
O=C(Nc1nc2ccccc2s1)OCC(F)(F)F	224 to 226 °C
O=C(O)c1noc(-c2ccccc2F)n1	189 to 191 °C
Nc1cc(C(=O)O)ccc1Br	226 to 230 °C
Cn1cc(-c2csc(N)n2)cn1	230 to 232 °C
Cc1c(C(=O)O)nnn1-c1cccc2ncccc12	209 to 211 °C
COC(=O)c1ccc(F)c(Cl)c1F	47 to 49 °C
O=C(O)CCN1CCCC1=O	109 to 111 °C
CCCCn1c(N)c(NCC)c(=O)[nH]c1=O	285 to 286 °C
O=[N+]([O-])c1c(CCl)nc2ccccn12	152 to 154 °C
NNC(=O)c1cc(N)cc([N+](=O)[O-])c1	227 to 229 °C
CN1CCCN(c2ccc(C#N)cc2Cl)CC1	40 to 42 °C
CN(C)S(=O)(=O)c1ccc(F)c(C(=O)O)c1	163 to 165 °C
Cc1cccc(NS(=O)(=O)c2cc(C(=O)O)c(Cl)cc2Cl)c1	172 to 174 °C
NCc1ccccc1CN1CCN(c2ccccc2)CC1	86 to 88 °C
Nc1nc(-c2ccc(S(=O)(=O)N3CCCCCC3)cc2)cs1	242 to 244 °C

SMILES	melting point
O=c1[nH]c(-c2ncccn2)no1	221 to 223 °C
O=C(O)C1(Cc2nc3ccccc3[nH]2)CCCC1	255 to 257 °C
N#CCC1(Sc2ccccc2N)CCCC1	89 to 91 °C
Cn1c(-c2ccccc2)c(C(=O)CCl)c2ccccc21	146 to 148 °C
FC(F)(F)CNC(=S)N1CCOCC1	103 to 105 °C
O=C(O)CCC1NC(=O)N(c2ccc(F)cc2F)C1=O (stereo unspecified)	183 to 185 °C
O=Cc1cc(Cl)c2c(c1)OCCO2	79 to 83 °C
CCN(CC)S(=O)(=O)c1cccc(C(=O)NC(C(=O)O)C(C)C)c1 (stereo unspecified)	110 to 112 °C
N#CCN1CCSCC1	51 to 53 °C
CCCCCCc1nc(S)c2c(=O)n(C)c(=O)n(CCC)c2n1	172 to 174 °C
O=C(O)c1nccnc1C(=O)NCc1ccc(F)cc1	170 to 172 °C
O=C(CCl)N(Cc1ccc(Cl)cc1)C12CC3CC(CC(C3)C1)C2	112 to 114 °C
Cc1sc2ncnc(NN)c2c1C	208 to 210 °C
Nc1cc(CO)ccc1Cl	97 to 99 °C
Cc1cc(C)c2c(N)c(C(=O)O)sc2n1	145 to 147 °C
O=C(O)C(Cc1ccccc1)N1C(=O)C=CC1=O (stereo unspecified)	193 to 195 °C
CC(=O)N1CCN(S(=O)(=O)c2ccc(C(=O)O)cc2)CC1	277 to 279 °C
COc1ccc2c(=O)[nH]cnc2c1	251 to 253 °C
Cc1ccc(C)c(NC(=O)CCl)c1	161 to 163 °C
O=C(O)CCNS(=O)(=O)c1c(Cl)cccc1Cl	119 to 121 °C
CSC(=CC(=O)c1cccnc1)SC	103 to 105 °C
Cc1nn2c(nc(Cl)c3ccccc32)c1Cl	176 to 178 °C
Cc1occc1C(=O)Nc1cc(N)ccc1F	130 to 132 °C
CNCc1ccc(O)cc1	103 to 105 °C
Cc1cc(N2CCN(C)CC2)ccc1N	100 to 102 °C
Cc1cccc(Oc2ccc(N)cn2)c1C	68 to 70 °C

SMILES	melting point
Nc1ccc(-n2ccnc2)cc1	143 to 147 °C
O=C1C=CC(=O)N1c1cc([N+](=O)[O-])ccc1Cl	73 to 75 °C
Cc1ccc(N2CCCC(Br)C2=O)cc1 (stereo unspecified)	96 to 98 °C
Cc1cc2occ(CC(=O)O)c2cc1C	133 to 135 °C
Cc1cc(C)c(OCC(=O)O)c(C)c1	150 to 152 °C
CC(=O)Cn1c(=O)oc(=O)c2ccccc21	151 to 153 °C
CCCCCCNC(=O)CCl	29 to 31 °C
CN(C)C(=O)c1cccc([N+](=O)[O-])c1	79 to 81 °C
Cc1cc(-c2nccn2Cc2ccccc2)c(=O)[nH]n1	215 to 217 °C
C=CCn1c(N)c(C(=O)OCC)sc1=S	118 to 120 °C
Cc1cc(C)c([N+](=O)[O-])c(Cl)n1	59 to 61 °C
Cc1oc2nc(CCl)nc(N)c2c1C	179 to 181 °C
CNS(=O)(=O)c1ccc(CCC(=O)O)cc1	188 to 190 °C
COc1ccc(-c2cc(C(=O)NN)c3ccccc3n2)cc1OC	181 to 183 °C
NC(=O)NC(CC(=O)O)c1ccc(Br)cc1 (stereo unspecified)	199 to 201 °C
CCC1(c2ccc(C)cc2)CC(=O)NC1=O (stereo unspecified)	76 to 78 °C
CCOc1ccc2c(c1)C(=O)NC2=O	159 to 161 °C
NS(=O)(=O)c1cnn(Cc2ccccc2)c1	157 to 159 °C
O=C(O)c1c[nH]c2ccc(I)cc2c1=O	286 to 288 °C
O=C1Cn2ccnc2CN1	179 to 181 °C
N#CC1(C(=O)O)CCOCC1	162 to 164 °C
O=S1(=O)CCC(O)c2ccccc21 (stereo unspecified)	94 to 96 °C
NC(=O)C1CCCn2ccnc21 (stereo unspecified)	177 to 179 °C
Cc1nc(-c2ccccn2)[nH]c(=O)c1CC(=O)O	209 to 211 °C
Cc1nnc(NCC2CC2)c2ccccc12	89 to 91 °C
O=C1CCOc2cc3c(cc21)OCO3	96 to 98 °C

SMILES	melting point
O=C(O)c1ccccc1N1CCCC1	87 to 89 °C
CC1(c2cccc(N)c2)NC(=O)NC1=O (stereo unspecified)	78 to 80 °C
COc1ccc(CNc2nccs2)c(OC)c1	112 to 114 °C
O=C(O)c1ccc(N2C(=O)C=CC2=O)cc1	229 to 231 °C
CCCn1c(=O)[nH]c(=O)c2cc(C(=O)O)cnc21	235 to 237 °C
COc1ccc(C(=O)O)cn1	172 to 174 °C
NC(=O)C1CCC(C(F)(F)F)NC1 (stereo unspecified)	127 to 129 °C
COc1cccc(C(C=O)C=O)c1	62 to 64 °C
Cc1n[nH]c(N)c1-c1ccc2c(c1)OCCO2	120 to 122 °C
O=C(O)c1cccn2c(I)cnc12	237 to 239 °C
Cc1ccc(C)n1-c1ccc(Br)cc1	61 to 63 °C
O=C(Cc1ccccc1F)N1CCNCC1	77 to 79 °C
BrCCc1ccc2ccccc2c1	62 to 64 °C
CC(N)=NS(=O)(=O)c1cc(Br)ccc1Br	182 to 184 °C
CNC1CCC(NC(=O)OC(C)(C)C)CC1 (stereo unspecified)	72 to 74 °C
O=C(O)c1cc([N+](=O)[O-])c(F)cc1Cl	151 to 153 °C
O=c1[nH]cnc2nc(N3CCOCC3)sc12	397 to 399 °C
C=CC(=O)Nc1cc(Cl)c(OC)cc1OC	142 to 144 °C
Brc1ccn2nccc2n1	131 to 133 °C
Nc1ccc(NC(=O)Oc2ccccc2)cc1	135 to 137 °C
Cc1ccc(CC(=O)O)cc1C	96 to 98 °C
Nc1ccc(C(=O)CCC(=O)O)cc1	184 to 186 °C
CCOC(=O)c1cc(C)n(CC(=O)O)c1C	86 to 88 °C

Source: a melting point compilation (Tetko et al.)
